# Assay results reported in US20110112184A1, “COMPOUNDS WITH GLYCIDIC STRUCTURE ACTIVE IN THE THERAPY OF SYSTEMIC AND LOCAL INFLAMMATION” (priority 2008, published 2011).
# Legend:
# [1] = system: ovalbumin-treated C57B1/6 mice; assay: Ovalbumin mouse model of asthma; assay type: in vivo
# Source text: FIG. 8. Serum levels of IL-4, IL-5 and IL-10 in untreated mice or mice treated with ovalbumin+comp 4. Untr=Untreated mice; comp 4=Mice treated with comp 4 alone; OVA=Mice treated with ovalbumin alone; comp 4+OVA=Mice treated with comp 4 and ovalbumin.
# FIG. 9. BALF levels of IL-4 and IL-5 in untreated mice or mice treated with ovalbumin+compound 4. Untr=Untreated mice; comp 4=Mice treated with comp 4 alone; OVA=Mice treated with ovalbumin alone; comp 4+OVA=Mice treated with comp 4 and ovalbumin.
# Compound 4 was tested in a mouse model of asthma where glucose had already been shown therapeutic efficacy. For this purpose, 10 male C57B1/6 mice were immunized intraperitoneally with 100 μg of ovalbumin (grade V) suspended in 500 μg Al(OH)3. Another group of 10 animals was treated the same way and, in addition, also with compound 4 (25 μg/kg) administered orally. One week after the first immunization, the same treatments were repeated. Two weeks after the first immunization, the first group of animals was challenged for 25 min with an aerosol of 5% (wt/vol) ovalbumin every day, for 5 consecutive days, while the other group received aerosolized ovalbumin plus compound 4 (25 μg/kg).
# A hallmark of inflammatory damage to the lung is the development of high-permeability edema, characterized by high protein content in the edema fluid. Indeed, in the lungs of ovalbumin-exposed mice the protein concentration in the BALF was markedly high (0.729 mg/ml), witnessing an important damage to the lungs of these animals. On the other hand, the protein concentration in the BALF of ovalbumin+4-treated animals was similar to that of untreated animals (0.394 mg/ml).
# Eventually, also the cytokine levels in the sera and BALFs of ovalbumin- or ovalbumin+compound 4-treated animals were measured. The levels of the cytokines IL-5 and IL-4, which are pivotal in the pathogenesis of asthmatic disease, were elevated in both sera and BALF from ovalbumin-treated mice, but normal in ovalbumin+4-treated animals.
# [2] = system: mice treated with LPS; assay: Serum KC levels after oral LPS in mice (diarrhoea model); assay type: in vivo; conditions: compound 4 25 μg/kg oral, then LPS 50 mg/kg oral, serum after 4 h, ELISA
# Experimental: FIG. 3. Serum levels of cytokine KC from mice treated with LPS alone or LPS with comp 4. Untr=untreated; LPS=Mice treated with LPS alone; comp 4+LPS=Mice treated with comp 4+LPS; comp 4=Mice treated with comp 4 alone.
# We tested whether oral pretreatment of mice with the compound 4 interferes with the increase in KC serum levels induced by LPS administration to mice. The dosage of compound 4 chosen for all in vivo experiments was 25 μg/kg. Mice (10/group) were treated orally with compound 4 (25 μg/kg), followed by oral treatment with LPS (50 mg/kg). Serum samples were collected after 4 h, and KC levels were evaluated by ELISA.
# [3] = system: Caco-2 enterocytes; assay: Doxorubicin-induced injury of Caco-2 enterocytes (ROS in culture medium); assay type: cell-based; conditions: Caco-2 monolayer, 3 μM doxorubicin + compound 4
# Experimental: FIG. 10. Measurement of ROS in the cell culture medium of untreated enterocytes or enterocytes treated with doxorubicin+compound 4. Ctrl=Untreated (control) cells; Doxo=Cells treated with doxorubicin alone; Doxo comp 4=Cells treated with doxorubicin and compound 4.
# Compound 4 has shown protective efficacy also in an in vitro model of chemotherapy-induced injury of enterocytes. In this model, a monolayer of Caco-2 enterocytes was treated with 3 μM doxorubicin alone or doxorubicin and 4.
# [4] = system: HT29 cells; assay: LPS-induced IL-8 production by HT29 intestinal epithelial cells (ELISA); assay type: cell-based, human; conditions: compounds 50 mg/L to 5 μg/L for 18 h, then LPS (Salmonella enterica abortus equi) 1 μg/ml 6 h
# Experimental: FIG. 2A. LPS-induced IL-8 production by HT29 cells in the absence or presence of the indicated concentrations of compound (c) 4, 5, 6, 7, 4′, 14.
# The effect of the compounds on the release of IL-8 or KC was tested upon stimulation of intestinal epithelial cells (IEC) with LPS from Salmonella enterica abortus equi. The human IEC line HT29 was used for these experiments. Cells were cultured for 18 h in medium alone or in medium additioned with different concentrations of compounds 4, 5, 6, 7, 4′ and 14 (from 50 mg/L to 5 μg/L). Then, cells were stimulated for 6 h with LPS (1 μg/ml). […] Similar experiments were performed on a human pneumocyte type II cell line (A549) using compound 4 and LPS from Pseudomonas aeruginosa.
# [5] = system: DSS-treated FVB mice; assay: Acute colitis (acute Crohn-like disease) induced by DSS 2% in mice; assay type: in vivo; conditions: acute model
# Experimental: FIG. 5. TNF-α levels in mice treated with DSS alone or DSS+comp 4. Untr=Untreated; DSS=Mice treated with DSS alone; DSS comp 4=Mice treated with DSS and comp 4;=Mice treated comp 4 alone.
# In mice induced for acute Crohn's disease, modifications of epithelial permeability of the intestine were determined by measuring intestinal transmembrane resistance using the Ussing chamber. For this purpose, 2-months old FVB mice were administered dextran sulfate sodium (DSS) 2% in the drinking water for 7 days (Wirtz et al, 2007). […] Eventually, the serum levels of the inflammatory cytokine TNF-α were measured in mice treated with DSS alone or with DSS+4.
# [6] = Stability of compound 4 towards pH variations by 1H-NMR; assay type: physicochemical; conditions: D2O, room temperature, spectra at 10 min, 4.5 h and 24 h
# Experimental: Stability of compound 4 towards pH variations is evaluated through ^1H-NMR analysis. Two samples are prepared, one in acidic conditions and one in basic conditions; the first is prepared by dissolving 2.3 mg in 550 μl of D2O and adjusting to pH 1.2 through DCl addition, while the second is prepared by dissolving 3 mg of compound 4 in 550 μl of D2O and adjusting to pH 12.5 through NaOD addition. The two samples are kept at room temperature and ^1H-NMR spectra thereof are recorded at time 10 min, 4.5 h and 24 h.
# FIG. 1. ^1H-NMR spectra of compound 4 at pH 12.5 and at pH 1.2.
smiles,measurement,setting,value
"CN(C)c1cccc2c(S(=O)(=O)NCC[C@H]3O[C@H](CO)[C@@H](O)[C@H](O)[C@H]3O)cccc12 [Compound 4, 5-(Dimethylamino)-N-[2′-(α-D-glucopyranosyl)ethyl]-1-naphthalenesulphonamide]",Protection against ovalbumin inflammation,[1]; oral administration of compound 4 during aerosol ovalbumin challenge (data not shown),protects the ovalbumin inflammation analogously to the aerosol challenge
same,IL-4 levels in BALF,[1]; ovalbumin + compound 4,normal
same,IL-4 levels in sera,[1]; ovalbumin + compound 4,normal
same,IL-5 levels in BALF,[1]; ovalbumin + compound 4,normal
same,IL-5 levels in sera,[1]; ovalbumin + compound 4,normal
same,IL-10 levels in sera,[1]; ovalbumin + compound 4,greatly increased
same,protein concentration in the BALF,[1]; ovalbumin + compound 4 (25 μg/kg),0.394 mg/mL
same,eosinophils in BALF,"[1]; ovalbumin + compound 4 (25 μg/kg; oral at immunization, aerosol at challenge)",127 cells/ml
same,Serum KC levels,[2],comparable to those of untreated mice
same,reactive oxygen species (ROS) in the cell culture medium,[3],complete inhibition
same,production of IL-8 induced by LPS,[4],significantly inhibited
same,Serum levels of TNF-α (increase induced by DSS 2%),[5]; DSS 2% + compound 4,strongly inhibited
same,Intestinal transmembrane resistance,"[5]; DSS 2% in drinking water 7 days + compound 4, Ussing chamber",49 Ω × cm^2
same,Stability towards pH (degradation by 1H-NMR),[6]; pH 1.2 (DCl),no degradation
same,Stability towards pH (degradation by 1H-NMR),[6]; pH 12.5 (NaOD),no degradation
